Columns and labels:
Assay in all cases: Test C postemergence, plant response rating
Format in all cases: in vivo
[1] = system: field violet (Viola arvensis); details: for Field Violet plant response rating: scale 0 to 100 (0 no effect, 100 complete control)
Method in brief: (§1)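 Greenhouse plants rated visually against untreated controls 13–15 d after treatment, scale 0 = no effect to 100 = complete control. Postemergence sprays went onto potted plants 2–18 cm tall (1–4 leaves); preemergence sprays onto soil freshly sown in loam–sand or silt loam, chemicals formulated in non-phytotoxic solvent with surfactant.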

[2] = system: wild poinsettia (Euphorbia heterophylla); details: for Poinsettia, Wild plant response rating: scale 0 to 100 (0 no effect, 100 complete control)
Method in brief: as §1

[3] = system: buckwheat, wild (wild buckwheat, Polygonum convolvulus); details: for Buckwheat, Wild plant response rating: scale 0 to 100 (0 no effect, 100 complete control)
Method in brief: as §1

[4] = system: surinam grass (Brachiaria decumbens)
Method in brief: as §1

[5] = system: pigweed, palmer (palmer pigweed, Amaranthus palmeri); details: for Pigweed, Palmer plant response rating: scale 0 to 100 (0 no effect, 100 complete control)
Method in brief: as §1

[6] = system: Canada thistle (Cirsium arvense); details: for Canada Thistle plant response rating: scale 0 to 100 (0 no effect, 100 complete control)
Method in brief: as §1

[7] = system: speedwell (bird's-eye speedwell, Veronica persica); details: for Speedwell plant response rating: scale 0 to 100 (0 no effect, 100 complete control)
Method in brief: as §1

[8] = system: windgrass (Apera spica-venti)
Method in brief: as §1

[9] = system: nightshade (eastern black nightshade, Solanum ptycanthum); details: for Nightshade plant response rating: scale 0 to 100 (0 no effect, 100 complete control)
Method in brief: as §1

[10] = system: wild mustard (Sinapis arvensis); details: for Mustard, Wild plant response rating: scale 0 to 100 (0 no effect, 100 complete control)
Method in brief: as §1

[11] = system: field poppy (Papaver rhoeas); details: for Field Poppy plant response rating: scale 0 to 100 (0 no effect, 100 complete control)
Method in brief: as §1

[12] = system: geranium, cutleaf (cutleaf geranium, Geranium dissectum); details: for Geranium, Cutleaf plant response rating: scale 0 to 100 (0 no effect, 100 complete control)
Method in brief: as §1

[13] = system: johnsongrass (Sorghum halepense); details: for Johnsongrass plant response rating: scale 0 to 100 (0 no effect, 100 complete control)
Method in brief: as §1

[14] = 125 g ai/ha, scale 0 to 100 (0 no effect, 100 complete control)

Structure (SMILES): CCCC(=O)c1c(Oc2ncc(Cl)cn2)cccc1C(F)(F)F [Compound 136]
- Plant response rating, Field Violet ([1]; 16 g ai/ha, scale of 0 to 100): 85
- Plant response rating, Field Violet ([1]; 31 g ai/ha, scale 0 to 100): 90
- Field Violet plant response rating ([1]; 62 g ai/ha): 95
- Field Violet plant response rating ([1]; 125 g ai/ha): 100
- Plant response rating, Poinsettia, Wild ([2]; 16 g ai/ha, scale of 0 to 100): 40
- Plant response rating, Poinsettia, Wild ([2]; 31 g ai/ha, scale 0 to 100): 65
- Poinsettia, Wild plant response rating ([2]; 62 g ai/ha): 70
- Poinsettia, Wild plant response rating ([2]; 125 g ai/ha): 75
- Plant response rating, Buckwheat, Wild ([3]; 16 g ai/ha, scale of 0 to 100): 50
- Plant response rating, Buckwheat, Wild ([3]; 31 g ai/ha, scale 0 to 100): 60
- Buckwheat, Wild plant response rating ([3]; 62 g ai/ha): 90
- Buckwheat, Wild plant response rating ([3]; 125 g ai/ha): 80
- Plant response rating, Surinam Grass ([4]; 16 g ai/ha, scale of 0 to 100): 5
- Plant response rating, Surinam Grass ([4]; 31 g ai/ha, scale 0 to 100): 5
- Surinam Grass plant response rating [4, 14]: 10
- Plant response rating, Pigweed, Palmer ([5]; 16 g ai/ha, scale of 0 to 100): 50
- Plant response rating, Pigweed, Palmer ([5]; 31 g ai/ha, scale 0 to 100): 55
- Pigweed, Palmer plant response rating ([5]; 62 g ai/ha): 70
- Pigweed, Palmer plant response rating ([5]; 125 g ai/ha): 70
- Plant response rating, Canada Thistle ([6]; 16 g ai/ha, scale of 0 to 100): 65
- Plant response rating, Canada Thistle ([6]; 31 g ai/ha, scale 0 to 100): 75
- Canada Thistle plant response rating ([6]; 62 g ai/ha): 85
- Canada Thistle plant response rating ([6]; 125 g ai/ha): 85
- Plant response rating, Speedwell ([7]; 16 g ai/ha, scale of 0 to 100): 75
- Plant response rating, Speedwell ([7]; 31 g ai/ha, scale 0 to 100): 80
- Speedwell plant response rating ([7]; 62 g ai/ha): 80
- Speedwell plant response rating ([7]; 125 g ai/ha): 85
- Plant response rating, Windgrass ([8]; 16 g ai/ha, scale of 0 to 100): 5
- Plant response rating, Windgrass ([8]; 31 g ai/ha, scale 0 to 100): 10
- Windgrass plant response rating [8, 14]: 30
- Plant response rating, Nightshade ([9]; 16 g ai/ha, scale of 0 to 100): 70
- Plant response rating, Nightshade ([9]; 31 g ai/ha, scale 0 to 100): 75
- Nightshade plant response rating ([9]; 62 g ai/ha): 70
- Nightshade plant response rating ([9]; 125 g ai/ha): 80
- Plant response rating, Mustard, Wild ([10]; 16 g ai/ha, scale of 0 to 100): 85
- Plant response rating, Mustard, Wild ([10]; 31 g ai/ha, scale 0 to 100): 95
- Mustard, Wild plant response rating ([10]; 62 g ai/ha): 85
- Mustard, Wild plant response rating ([10]; 125 g ai/ha): 100
- Plant response rating, Field Poppy ([11]; 16 g ai/ha, scale of 0 to 100): 65
- Plant response rating, Field Poppy ([11]; 31 g ai/ha, scale 0 to 100): 85
- Field Poppy plant response rating ([11]; 62 g ai/ha): 80
- Field Poppy plant response rating ([11]; 125 g ai/ha): 90
- Plant response rating, Geranium, Cutleaf ([12]; 16 g ai/ha, scale of 0 to 100): 15
- Plant response rating, Geranium, Cutleaf ([12]; 31 g ai/ha, scale 0 to 100): 25
- Geranium, Cutleaf plant response rating ([12]; 62 g ai/ha): 50
- Geranium, Cutleaf plant response rating ([12]; 125 g ai/ha): 45
- Plant response rating, Johnsongrass ([13]; 16 g ai/ha, scale of 0 to 100): 5
- Plant response rating, Johnsongrass ([13]; 31 g ai/ha, scale 0 to 100): 5
- Johnsongrass plant response rating ([13]; 62 g ai/ha): 10
- Johnsongrass plant response rating ([13]; 125 g ai/ha): 15

From patent publication US11053204B2, “Pyrimidinyloxy benzene derivatives as herbicides” (FMC Corporation, priority 2015, dated 2021)
